“Also recorded” adds a separate entry of the source.
Assays:
A2Cs of uPA^−/− mice = assay: Tobacco smoke or repeated bleomycin exposure of uPA-/- mice; assay type: in vivo, mouse
Method: To analyze the effect of cigarette smoke, mice were exposed to passive smoke from 40 research cigarettes over a 2-hour period once (2 h) or twice (4 h) daily for 5 days/week for 20 weeks (˜90 mg/m^3 total solid particulates) using a mechanical smoking chamber (Teague Enterprises, Davis, CA). Control mice were exposed to ambient air. At the 18th week, peptide treatment at a dosage of 30 μg/20 g body weight was initiated and continued on a daily basis for the next 14 days. At the end of the experiment, the mice were euthanized and used for the experiments.
To analyze the effect of BLM, mice were exposed to BLM (40 μg/20 g body weight) once per two week for 16 weeks. Control mice were exposed to normal saline. At 14th week the peptide treatment at a dosage of 30 μg/20 g body weight was initiated and continued on a daily basis for the next 14 days. At the end of the experiment, the mice were euthanized and used for the experiments.
To test the effect of chronic TS exposure induced lung injury, these mice were exposed to passive TS from 40 research cigarettes over a 4 h period 5 days/week for 20 weeks (˜90 mg/m3 total solid particulates) using a mechanical smoking chamber (Teague Enterprises, Davis, CA) as described earlier. (Bhandary et al, 2015). Control mice were kept in ambient air. After sixteen weeks of daily passive TS exposure, mice with TS exposure injury were treated with CSP7 at a dosage of 1.5 mg/kg body weight daily 5 days/week for the next four weeks. These mice were continued with daily exposure of 4 h of TS during CSP7 treatment. At the end of the experiment (after 20 weeks of TS exposure), the mice were euthanized, and lungs were utilized for further analyses. To expand the local delivery options of CSP7 to directly treat the damaged lung by air-jet milling for dry powder inhalation (DPI). Mice exposed to TSE were treated with CSP7 using a rotating brush generator for 15 min daily for 7 days. Fourteen days later, BLM mice were subjected to daily inhalation of micronized CSP7 (0.05 mg/kg/d) DP through air-jet-milling for seven consecutive days using a rotating brush exposure system. The rotating brush exposure system gave a consistent minimal chamber concentration of 0.1 mg/L. In order to match dosing of DP inhalation, animal exposure times were adjusted to approximately 15 minutes and an estimated dose of 0.05 mg/kg/d or 1.00 microgram/lung was administered.
To evaluate the effect of CSP7 against chronic BLM-induced PF, the mice were exposed to BLM (40 μg/20 g body weight) once every two weeks for 16 weeks as described elsewhere. (Tiwari et al, 2016). Control mice were exposed to normal saline. Fourteen weeks later the CSP7 at a dosage of 1.5 mg/kg body weight was administered by IP injection and continued daily basis for the next two weeks as described elsewhere. (Tiwari et al, 2016; Shetty et al, 2008b). At the end of the experiment, the mice were euthanized and lung tissues and isolated A2Cs from the extracted lung tissues were used for further analysis.

AECs from COPD lungs = AECs from COPD lungs treated in vitro for 48 h; assay type: cell-based, human

FTTFTVT (listed as Homo sapiens) [CSP7, heptapeptide fragment of the caveolin-1 scaffolding domain peptide CSP]
p53, ACp53, S15p53, apoptosis, senescence, PAI-1, SIAH1/2, TRF1, TRF2, PNUTS, TERT (Western blot) (A2Cs of uPA^−/− mice; uPA-/- mice, 8×BLM PF): minimal effect
telomerase enzyme activity (trapeze) (A2Cs of uPA^−/− mice; uPA-/- mice, 8×BLM PF): failed to restore
telomere length (qPCR) (A2Cs of uPA^−/− mice; uPA-/- mice, 8×BLM PF): failed to restore telomere length
telomere shortening (qPCR) (A2Cs of uPA^−/− mice; uPA-/- mice, 20 weeks TS): failed to respond to CSP7 treatment
telomere shortening (A2Cs of uPA^−/− mice; uPA-/- mice, 20 weeks smoke or repeated BLM, vs CP): did not show significant difference in telomere shortening
IHC of lung sections for TRF1 (A2Cs of uPA^−/− mice; uPA-/- mice, TS): minimal inhibition
TRF1, TRF2 and TERT expression in A2Cs (A2Cs of uPA^−/− mice; uPA-/- mice, TS): no significant change
p53 modification/induction, active caspase-3, β-galactosidase (Western blot) (A2Cs of uPA^−/− mice; uPA-/- mice, TS): failed to inhibit post-translational modification or induction of p53, active caspase-3 or β-galactosidase
telomerase activity (A2Cs of uPA^−/− mice; uPA-/- mice, TS): inability of CSP7 to reverse telomere shortening or improve telomerase activity
activation of p53, caspase-3, β-galactosidase (Western blot) (A2Cs of uPA^−/− mice; uPA-/- mice, smoke or BLM): failed to inhibit activation of p53, caspase-3 as well as β-galactosidase
telomerase enzyme activity (trapeze) (A2Cs of uPA^−/− mice; uPA-/- mice, smoke or BLM): did not restore the telomerase enzyme activity
TRF1, TRF2 and TERT expression (A2Cs of uPA^−/− mice; uPA-/- mice, smoke or BLM, CSP7 vs CP groups): no significant change
p53-induced PAI-1 expression or telomere dysfunction (A2Cs of uPA^−/− mice; uPA-deficient mice, TS- and 8×BLM-induced lung injury): failed to suppress p53-induced PAI-1 expression or telomere dysfunction
CIP2A mRNA (AECs from COPD lungs): significant suppression of CIP2A mRNA
MUC5AC, HDAC6, FOXA3, CAV1 and FOXA2 mRNA (qPCR) (AECs from COPD lungs): reversed by CSP7 treatment; also recorded: significantly suppressed
co-localization of MUC5AC/HDAC6 and Ac-Tub/LC3 (immunofluorescence) (AECs from COPD lungs): co-localization was reversed
number of ciliated AECs and cilia length (AECs from COPD lungs): restored
acridine orange staining of acidic vesicles (late autophagic vacuoles) (AECs from COPD lungs; 6 h): reversed by CSP7; also recorded: marked reduction in red fluorescence
Cav1 mRNA (qPCR) (AECs from COPD lungs; 48 h): reversed

WGIDKAFFTTSTVTYKWFRY [CP, scrambled control peptide with the same amino acid composition as CSP, reference compound]
TRF1, TRF2 and TERT expression in A2Cs (A2Cs of uPA^−/− mice; uPA-/- mice, TS): no significant change
MUC5AC, HDAC6, FOXA3, CAV1 and FOXA2 mRNA (qPCR) (AECs from COPD lungs): continued to exhibit elevated levels of MUC5AC, HDAC6, FOXA3, and CAV1 mRNA with low FOXA2 mRNA

Reference: US20240082342A1, “PEPTIDE THERAPEUTICS FOR INCREASING LUNG CELL VIABILITY” (BOARD OF REGENTS, THE UNIVERSITY OF TEXAS SYSTEM, priority 2018, published 2024)
